For data set [1], the system named is Cobetia marina (DSMZ4741) bacterial fouling layer. Kind of data set: Cleaning of bacterial fouling layer on PA, fluorescence spectroscopy (DAPI / Concanavalin A). The data set is classed as cell-based. The method, then: Bacterial Strain and Growth Conditions
To generate bacterial fouling layers, the marine bacterium Cobetia marina (DSMZ4741) was used in this study. The strain was purchased from the DSMZ culture collections, Germany. Sea Salt Peptone (SSP, all ingredients purchased from Sigma-Aldrich) (sea salt 20 g; peptone 18 g; deionised water 1,000 ml, pH 7.8) was used as the growth medium. The culture stock was maintained on Sea Salt Peptone Agar (SSPA, all ingredients purchased from Sigma-Aldrich) slants (sea salt 20 g; peptone 18 g; agar 30 g; deionised water 1,000 ml, pH 7.8). Prior to the experiments, the culture was grown in the SSP medium on a rotary shaker at 180 rpm at 28° C. for 20-22 h in order to obtain cells in the logphase.
Preparation of Bacterial Fouling Layers
The polyamid thin film substrates prepared on glass slides were conditioned for 24 h in artificial seawater (sea salt 20 g; deionised water 1,000 ml, pH 7.8) before being transferred to the bacterial cell suspensions. A freshly grown (logphase) bacterial suspension was prepared with an absorbance of 0.2 at a wavelength of 600 nm (DU 800, Beckman Coulter, Krefeld, Germany). The conditioned replicate slides (four for each assay) were placed into individual compartments of quadric petri dishes and 5 ml of the bacterial suspension was added thereby fully immersing the slides. The plates were placed in an incubator at 28° C. on a rotary shaker (90 rpm). After 1 h of incubation, the slides were transferred into new quadric petri dishes containing 5 ml of fresh SSP medium. The plates were incubated for another 4 h at 28° C. on a rotary shaker (90 rpm) for the attached bacteria to proliferate on the surface of the slides. At the end of the incubation, the slides were gently rinsed in artificial seawater to remove any non-adherent cells.
Cleaning Experiments with Bacterial Fouling Layers
Similar to the experiments using the multi-component molecular fouling layers, selected cleaning conditions (pH 12) and agents were tested for their ability to remove bacterial cells and EPS matrix. Additionally, the cleaning potential of the protease subtilisin (Subtilisin A type VIII from Bacillus licheniformis, 12 U/mg, Sigma-Aldrich) and methylglycine diacetic acid, sodium salt ([…], BASF SE) applied alone or in combination with the surfactant 2-propylheptanol, 6 EO, 1 PO (Lutensol⋅ XL 60, BASF SE) was evaluated. For that, the enzyme (100 μg/ml) and/or chelating agent (active concentration of 0.2%) and/or the surfactant (active concentration of 0.025%) were dissolved in 10 mM NaH2PO4 buffer (Sigma-Aldrich, pH 8.1). The bacterial fouling layers were immersed in the particular cleaning solution for 10 min at room temperature followed by rinsing in deionised water. After that, they were immediately fixed.
For fluorescence microscopy/spectroscopy and atomic force microscopy, bacterial fouling layers were fixed by transferring the respective slides into quadric petri dishes containing 4% paraformaldehyde (Sigma-Aldrich). After incubation for 15 min, the layers were rinsed with deionised water and dried by nitrogen.
For fluorescence staining, the slides were placed into custom-made incubation chambers in order to avoid backside staining. To stain the EPS matrix, Alexa 488-conjugated Concanavalin A (Molecular Probes, distributed by Invitrogen, Netherlands) dissolved in 0.1 M sodium bicarbonate (SigmaAldrich) buffer (pH 8.3) was added for 1 h in the dark (25 μg/cm^2). After incubation, the solution was removed and samples were washed with phosphate buffered saline (PBS, Sigma-Aldrich) twice. For staining of bacterial cells, DAPI solution (dissolved in PBS) was applied to Concanavalin A-stained samples for 5 min in the dark (25 μg/cm^2). After removal of the solution, the layers were washed with deionised water twice. Samples were taken out of the incubation chambers and dried by nitrogen.
Quantification of Cleaning Efficiency by Fluorescence Spectroscopy […]

Data set [2] can be described thus: Dynamic contact angle on PES. The data set is classed as physicochemical. The conditions noted are these: 0.2 g/l aqueous, 23° C. The method, then: (§1) Determination of the Dynamic Contact Angle
(§2) The dynamic contact angle was measured with a video based high velocity measuring instrument for contact angle determination of the type OCAH 200 of the company Dataphysics Instruments 5 GmbH, Raiffeisenstr. 34, Fildersstadt, on the spin-coated glass slides.
(§3) The surfactants according to the invention listed in Tables […] used in an aqueous solution at a concentration of 0.2 g/l.
(§4) The contact angel is constantly determined (60 times per second) at 23° C. during 10 seconds after application. Under these conditions the contact angel of water without added surfactant remains at approximately at 65°. The contact angle on PA of the aqueous solutions of the branched tridecylethoxylates drops to 10° to 33°. The contact angle on PES of the aqueous solutions of the branched tridecylethoxylates drops to 17° to 37°. A contact angle after 10 seconds below 30° is preferred.

Data set [3] can be described thus: Dynamic contact angle on PA. It is filed as physicochemical. The settings on record: 0.2 g/l aqueous, 23° C. The method, then:
as §1, §2, §3, §4

The mark [4] stands for this setting: 10 mM NaH2PO4 buffer pH 8.1, surfactant 0.025%, chelating agent 0.2%, enzyme 100 μg/ml, 10 min.

In the case of 2-Propylheptanol, 6 EO [Nr 22], in data set [1] (0.025%, pH 12, 10 min), the “Cleaning Performance, Cells (DAPI)” value is 25,1% and the “Cleaning Performance, Matrix (Concanavalin A)” value (“Cleaning Performance, Matrix” for short) is recorded as 0,2%.

As to 2-Propylheptanol, 6 EO, 1 PO [Nr 18], in data set [1] (setting [4]), the “Cleaning Performance, Cells (DAPI)” value was 31,8% and the “Cleaning Performance, Matrix” value is given as 16,5%. In data set [1] (0.025%, pH 12, 10 min), the “Cleaning Performance, Cells (DAPI)” value is 51,7% and the “Cleaning Performance, Matrix” value was 9,6%.

As for 2-Propylheptanol, 6 EO, 5 PO [Nr 38], in data set [1] (0.025%, pH 12, 10 min), the “Cleaning Performance, Cells (DAPI)” value is recorded as 52,8% and the “Cleaning Performance, Matrix” value is reported as 15,2%.

With `CC(C(=O)[O-])N(CC(=O)[O-])CC(=O)[O-].[Na+].[Na+].[Na+]` (stereo not shown) [Methylglycine diacetic acid, sodium salt, reference compound], in data set [1] (setting [4]), the “Cleaning Performance, Cells (DAPI)” value is recorded as 47,7% and the “Cleaning Performance, Matrix” value was 42,5%. For the same molecule, in data set [1] (0.025%, pH 12, 10 min), the “Cleaning Performance, Cells (DAPI)” value is recorded as 73,5% and the “Cleaning Performance, Matrix” value is listed as 42,5%.

Take branched C13—OH, 7 EO [Nr 4]: the “Contact angle at 0.1 s” value is 45.0° in data set [2] (0.1 s) and 48.2 ° in data set [3] (0.1 s). Further, the results for the “Contact angle at 1 s” value in data set [2] (1.0 s) and in data set [3] (1.0 s) were 34.8° and 32.3 °, respectively. Also, the “Contact angle at 10 s” value stood at 17.9° in data set [2] (10.0 s) and 10.5 ° in data set [3] (10.0 s).

Consider “linear alkylbenzenesulfonate, sodium salt [Nr 41, reference compound]”, for which, in data set [1] (0.025%, pH 12, 10 min), the “Cleaning Performance, Cells (DAPI)” value was 35,9% and the “Cleaning Performance, Matrix” value is on record as 10,8%.

B1: Subtilisin: protease subtilisin (Subtilisin A type VIII from Bacillus licheniformis, 12 U/mg, Sigma-Aldrich) (protein, UniProt P00780 106-379, looked up)
Subtilisin Carlsberg: AQTVPYGIPLIKADKVQAQGFKGANVKVAVLDTGIQASHPDLNVVGGASFVAGEAYNTDGNGHGTHVAGTVAALDNTTGVLGVAPSVSLYAVKVLNSSGSGSYSGIVSGIEWATTNGMDVINMSLGGASGSTAMKQAVDNAYAKGVVVVAAAGNSGSSGNTNTIGYPAKYDSVIAVGAVDSNSNRASFSSVGAELEVMAPGAGVYSTYPTNTYATLNGTSMASPHVAGAAALILSKHPNLSASQVRNRLSSTATYLGSSFYYGKGLINVEAAAQ
B1: in data set [1] (setting [4]), the “Cleaning Performance, Cells (DAPI)” value is 17,8% and the “Cleaning Performance, Matrix” value is recorded as 10,5%.

The record behind these values is US10087399B2, “Use of alkoxylated non-ionic surfactants as additive in aqueous membrane cleaning compositions” (BASF SE, priority 2012, dated 2018).
